PubChem BioAssay AID1919002 (Molecular Pharmacology Branch, DTP, NCI, 2023)

Test system: 743489-274-T-PDC complex spheroid growth
Experiment: Anticancer human tumor 743489-274-T-PDC patient-derived renal cell carcinoma cell line growth inhibition [AhR]
Settings: for viability, T/C: stronger effect = lower value; active = viability on the fitted dose curve at most 10% of control; inactive = the rest
Procedure, shortened: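 Complex tumor spheroids co-cultured with HUVEC and human MSC stroma; AhR antagonists tested in combination with standard-of-care and investigational agents. Top concentration at or near clinical Cmax (else 10 microM), half-log dilutions; growth expressed as percent test/control.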

[1] = curve of first compound, second compound 0.1 µM
[2] = curve of first compound, second compound 0.316 µM
[3] = curve of first compound, second compound 1 µM
[4] = curve of first compound, second compound 3.16 µM
[5] = curve of first compound, second compound 10 µM
[6] = second compound 0.1 µM, first compound 0.0316 µM
[7] = second compound 0.1 µM, first compound 0.1 µM
[8] = second compound 0.1 µM, first compound 0.316 µM
[9] = second compound 0.1 µM, first compound 1 µM
[10] = second compound 0.1 µM, first compound 3.16 µM
[11] = second compound 0.1 µM, first compound 10 µM
[12] = second compound 0.316 µM, first compound 0.0316 µM
[13] = second compound 0.316 µM, first compound 0.1 µM
[14] = second compound 0.316 µM, first compound 0.316 µM
[15] = second compound 0.316 µM, first compound 1 µM
[16] = second compound 0.316 µM, first compound 3.16 µM
[17] = second compound 0.316 µM, first compound 10 µM
[18] = second compound 1 µM, first compound 0.0316 µM
[19] = second compound 1 µM, first compound 0.1 µM
[20] = second compound 1 µM, first compound 0.316 µM
[21] = second compound 1 µM, first compound 1 µM
[22] = second compound 1 µM, first compound 3.16 µM
[23] = second compound 1 µM, first compound 10 µM
[24] = second compound 3.16 µM, first compound 0.0316 µM
[25] = second compound 3.16 µM, first compound 0.1 µM
[26] = second compound 3.16 µM, first compound 0.316 µM
[27] = second compound 3.16 µM, first compound 1 µM
[28] = second compound 3.16 µM, first compound 3.16 µM
[29] = second compound 3.16 µM, first compound 10 µM
[30] = second compound 10 µM, first compound 0.0316 µM
[31] = second compound 10 µM, first compound 0.1 µM
[32] = second compound 10 µM, first compound 0.316 µM
[33] = second compound 10 µM, first compound 1 µM
[34] = second compound 10 µM, first compound 3.16 µM
[35] = second compound 10 µM, first compound 10 µM
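Note: spheroids exposed to agents for 7 days before readout.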
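Throughout, for viability, T/C: 100% = DMSO vehicle control wells.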

O=C(C=Cn1cnc(-c2cc(C(F)(F)F)cc(C(F)(F)F)c2)n1)NNc1cnccn1 + Cc1cncc(-c2nc(NCCc3c[nH]c4ccccc34)c3ncn(C(C)C)c3n2)c1
inactive: viability, T/C (second compound 0.1 µM, first compound 0.00949 µM) 103% | viability, T/C (second compound 0.1 µM, first compound 0.03 µM) 95.6% | viability, T/C (second compound 0.1 µM, first compound 0.0949 µM) 112% | viability, T/C (second compound 0.1 µM, first compound 0.3 µM) 122% | viability, T/C (second compound 0.1 µM, first compound 0.949 µM) 124% | viability, T/C (second compound 0.1 µM, first compound 3 µM) 96.5% | viability, T/C (second compound 0.316 µM, first compound 0.00949 µM) 96.2% | viability, T/C (second compound 0.316 µM, first compound 0.03 µM) 92.5% | viability, T/C (second compound 0.316 µM, first compound 0.0949 µM) 97.5% | viability, T/C (second compound 0.316 µM, first compound 0.3 µM) 107% | viability, T/C (second compound 0.316 µM, first compound 0.949 µM) 106% | viability, T/C (second compound 0.316 µM, first compound 3 µM) 83.7% | viability, T/C (second compound 1 µM, first compound 0.00949 µM) 94.5% | viability, T/C (second compound 1 µM, first compound 0.03 µM) 102% | viability, T/C (second compound 1 µM, first compound 0.0949 µM) 98.7% | viability, T/C (second compound 1 µM, first compound 0.3 µM) 105% | viability, T/C (second compound 1 µM, first compound 0.949 µM) 108% | viability, T/C (second compound 1 µM, first compound 3 µM) 104% | viability, T/C (second compound 3.16 µM, first compound 0.00949 µM) 111% | viability, T/C (second compound 3.16 µM, first compound 0.03 µM) 101% | viability, T/C (second compound 3.16 µM, first compound 0.0949 µM) 102% | viability, T/C (second compound 3.16 µM, first compound 0.3 µM) 117% | viability, T/C (second compound 3.16 µM, first compound 0.949 µM) 103% | viability, T/C (second compound 3.16 µM, first compound 3 µM) 96.2% | viability, T/C (second compound 10 µM, first compound 0.00949 µM) 80.4% | viability, T/C (second compound 10 µM, first compound 0.03 µM) 80.2% | viability, T/C (second compound 10 µM, first compound 0.0949 µM) 84.4% | viability, T/C (second compound 10 µM, first compound 0.3 µM) 102% | viability, T/C (second compound 10 µM, first compound 0.949 µM) 102% | viability, T/C (second compound 10 µM, first compound 3 µM) 101%
> 3 µM: IC50 [1] | IC50 [2] | IC50 [3] | IC50 [4] | IC50 [5]

COc1cccc2c1C(=O)c1c(O)c3c(c(O)c1C2=O)CC(O)(C(=O)CO)CC3OC1CC(N)C(O)C(C)O1 (stereo not drawn) + CC(CO)NC(=O)c1cc(-c2ccc(Cl)cc2)nn(-c2cnn(C)c2)c1=O
3.24 µM: IC50 [5]
inactive: viability, T/C [6] 101% | viability, T/C [7] 106% | viability, T/C [8] 107% | viability, T/C [9] 96.3% | viability, T/C [10] 108% | viability, T/C [11] 40.6% | viability, T/C [12] 93.7% | viability, T/C [13] 106% | viability, T/C [14] 108% | viability, T/C [15] 93.5% | viability, T/C [16] 102% | viability, T/C [17] 46.7% | viability, T/C [18] 110% | viability, T/C [19] 95% | viability, T/C [20] 107% | viability, T/C [21] 97% | viability, T/C [22] 93.2% | viability, T/C [23] 45.5% | viability, T/C [24] 88% | viability, T/C [25] 91.6% | viability, T/C [26] 108% | viability, T/C [27] 96.7% | viability, T/C [28] 88.2% | viability, T/C [29] 27.4% | viability, T/C [30] 92% | viability, T/C [31] 103% | viability, T/C [32] 101% | viability, T/C [33] 89.7% | viability, T/C [34] 51.2%
9.32 µM: IC50 [2]
8.98 µM: IC50 [3]
8.45 µM: IC50 [1]
6.53 µM: IC50 [4]
active: viability, T/C [35] 0.36%

Nc1ccn(C2OC(CO)C(O)C2(F)F)c(=O)n1 (stereo not drawn) + CC(CO)NC(=O)c1cc(-c2ccc(Cl)cc2)nn(-c2cnn(C)c2)c1=O
> 10 µM: IC50 [1] | IC50 [2] | IC50 [3] | IC50 [4] | IC50 [5]
inactive: viability, T/C [6] 81.9% | viability, T/C [7] 79.7% | viability, T/C [8] 71.8% | viability, T/C [9] 62.2% | viability, T/C [10] 59.9% | viability, T/C [11] 67.7% | viability, T/C [12] 80.7% | viability, T/C [13] 73% | viability, T/C [14] 70.8% | viability, T/C [15] 68.3% | viability, T/C [16] 62.6% | viability, T/C [17] 69.9% | viability, T/C [18] 84% | viability, T/C [19] 68.5% | viability, T/C [20] 68.3% | viability, T/C [21] 59.5% | viability, T/C [22] 70% | viability, T/C [23] 71.5% | viability, T/C [24] 81.1% | viability, T/C [25] 75.9% | viability, T/C [26] 64.4% | viability, T/C [27] 64.7% | viability, T/C [28] 76.6% | viability, T/C [29] 63.6% | viability, T/C [30] 90.2% | viability, T/C [31] 82.5% | viability, T/C [32] 65.3% | viability, T/C [33] 65.1% | viability, T/C [34] 77.2% | viability, T/C [35] 74.3%

Cc1cncc(-c2nc(NCCc3c[nH]c4ccccc34)c3ncn(C(C)C)c3n2)c1
> 10 µM: IC50 (compound alone, run of 08/16/2022)
inactive: viability, T/C (compound 0.1 µM) 95.2% [middle of 20 runs] | viability, T/C (compound 0.316 µM) 94.5% [middle of 20 runs]
